From patent US20240317772A1, “SESQUITERPENE DERIVATIVE AND PHARMACEUTICAL COMPOSITION THEREOF, AND THEIR PREPARATION METHODS AND USE” (TIANJIN JIKUN MEDICAL TECHNOLOGY CO., LTD., priority 2022, published 2024) come the findings set out here.

Format in all cases: in vivo
The subject of one test is Tumor cells H22. Briefly: Anti-tumor effect in H22 tumor-bearing mice (alone and combined with PD-1 monoclonal antibody). The settings on record: female C57BL/6 mice; by tumor weight vs control group; compounds 150 mg/kg orally every day; PD-1 monoclonal antibody 10 mg/kg intraperitoneally every three days; combination: both. The source says: (§1) Tumor cells B16F10, LLC, PAN02, H22, CT26, MFC, and GL261 (purchased from Biological Industries) in good growth status were collected, separately washed twice with 1×PBS, and a total number of the cells was counted with a cell counter, and a cell solution was separately diluted with 1×PBS to obtain a cell suspension of 1×10^7 cells/mL. The mice used in this experiment were purchased from Beijing Vital River Laboratory (Beijing, China). The above different types of tumor cells were inoculated into different types of mice to produce corresponding tumor-bearing mice, and the correspondences are as follows. Tumor cell B16F10 corresponds to female mice C57BL/6 aged 6-8 weeks; Tumor cell LLC corresponds to female mice Balb/c aged 6-8 weeks; Tumor cell PAN02 corresponds to female mice C57BL/6J aged 6-8 weeks; Tumor cell H22 corresponds to female mice C57BL/6 aged 6-8 weeks; Tumor cell CT26 corresponds to female mice Balb/c aged 6-8 weeks; Tumor cell MFC corresponds to female mice BALB/c-nu/nu aged 6-8 weeks; and Tumor cell GL261 corresponds to female mice C57BL/6 aged 6-8 weeks. […] After the experiment was completed, the mice were euthanized, tumor tissues thereof were collected, and volume and weight of the tumor tissues were tested to calculate a tumor inhibition rate. Tumor inhibition rate=(1-tumor weight of treatment group/tumor weight of control group)×100%

Another test concerns Tumor cells LLC. Briefly: Anti-tumor effect in LLC tumor-bearing mice (alone and combined with PD-1 monoclonal antibody). The note with it: female Balb/c mice; by tumor weight vs control group; compounds 150 mg/kg orally every day; PD-1 monoclonal antibody 10 mg/kg intraperitoneally every three days; combination: both.
Source text: as §1

A further test relates to Tumor cells CT26. Put plainly: Anti-tumor effect in CT26 tumor-bearing mice (alone and combined with PD-1 monoclonal antibody). The settings on record: female Balb/c mice; by tumor weight vs control group; compounds 150 mg/kg orally every day; PD-1 monoclonal antibody 10 mg/kg intraperitoneally every three days; combination: both.
Source text: as §1

Another test has as its system Tumor cells MFC. Briefly: Anti-tumor effect in MFC tumor-bearing mice (alone and combined with PD-1 monoclonal antibody). The settings on record: female BALB/c-nu/nu mice; by tumor weight vs control group; compounds 150 mg/kg orally every day; PD-1 monoclonal antibody 10 mg/kg intraperitoneally every three days; combination: both.
Source text: as §1

The next test deals with Tumor cells PAN02. Briefly: Anti-tumor effect in PAN02 tumor-bearing mice (alone and combined with PD-1 monoclonal antibody). The note with it: for Tumor inhibition rate PAN02: female C57BL/6J mice, by tumor weight vs control group, compounds 150 mg/kg orally every day, PD-1 monoclonal antibody 10 mg/kg intraperitoneally every three days, combination: both.
Source text: as §1

The next test has as its system Tumor cells B16F10. Put plainly: Anti-tumor effect in B16F10 tumor-bearing mice (alone and combined with PD-1 monoclonal antibody). The settings on record: female C57BL/6 mice; by tumor weight vs control group; compounds 150 mg/kg orally every day; PD-1 monoclonal antibody 10 mg/kg intraperitoneally every three days; combination: both.
Source text: as §1

For another test, the system named is Tumor cells GL261. Briefly: Anti-tumor effect in GL261 tumor-bearing mice (alone and combined with PD-1 monoclonal antibody). The settings on record: for Tumor inhibition rate GL261: female C57BL/6 mice, by tumor weight vs control group, compounds 150 mg/kg orally every day, PD-1 monoclonal antibody 10 mg/kg intraperitoneally every three days, combination: both.
Source text: as §1

Where [1] appears, read: combined administration with the PD-1 monoclonal antibody (text summary of Table 1).

On to `CN(C)CC1C(=O)O[C@@H]2C[C@@]3(C)CC[C@@H](O)[C@]4(CO4)[C@@H]3C[C@H]12.O=C(O)/C=C/C(=O)O` (stereo partly drawn) [Control compound 7, reference compound], for which, in the test with Tumor cells H22, the “Tumor inhibition rate H22” value is 52%. For the same compound, in the test on Tumor cells LLC, the “Tumor inhibition rate LLC” value came to 44%. In addition, in the test on Tumor cells CT26, the “Tumor inhibition rate CT26” value is 60%. In the test with Tumor cells MFC, the “Tumor inhibition rate MFC” value stood at 38%. In addition, in the test on Tumor cells PAN02, the “Tumor inhibition rate PAN02” value was found to be 43%. Besides, the “Tumor inhibition rate B16F10” value with Tumor cells B16F10 amounted to 41%. The “Tumor inhibition rate GL261” value in the test with Tumor cells GL261 amounted to 39%.

With `CN(CCO)CC1C(=O)O[C@@H]2C[C@@]3(C)CC[C@@H](O)[C@]4(CO4)[C@@H]3C[C@H]12.O=C(O)/C=C/C(=O)O` (stereo partly drawn) [Compound 4], in the test with Tumor cells H22, the “Tumor inhibition rate H22” value was determined as 26%. For the same compound, the “Tumor inhibition rate LLC” value in the test on Tumor cells LLC was 24%. Moreover, in the test on Tumor cells CT26, the “Tumor inhibition rate CT26” value was found to be 31%. The “Tumor inhibition rate MFC” value in the test with Tumor cells MFC is on record as 27%. For the same compound, the “Tumor inhibition rate PAN02” value in the test with Tumor cells PAN02 is listed as 22%. Moreover, the “Tumor inhibition rate B16F10” value in the test with Tumor cells B16F10 came to 23%. In addition, the “Tumor inhibition rate GL261” value in the test with Tumor cells GL261 is on record as 23%.

As to `CN(CCCO)CC1C(=O)O[C@@H]2C[C@@]3(C)CC[C@@H](O)[C@]4(CO4)[C@@H]3C[C@H]12.O=C(O)/C=C/C(=O)O` (stereo partly drawn) [Compound 6], in the test with Tumor cells H22, the “Tumor inhibition rate H22” value amounted to 39%. For the same compound, the “Tumor inhibition rate LLC” value with Tumor cells LLC is listed as 29%. The “Tumor inhibition rate CT26” value in the test on Tumor cells CT26 is 41%. In addition, the “Tumor inhibition rate MFC” value in the test on Tumor cells MFC is given as 52%. The “tumor inhibition rate, PAN02 cells” value with Tumor cells PAN02 (setting [1]) is recorded as “up to 89%”. Besides, the “Tumor inhibition rate PAN02” value with Tumor cells PAN02 is given as 31%. For the same compound, the “Tumor inhibition rate B16F10” value in the test with Tumor cells B16F10 came to 31%. Besides, in the test on Tumor cells GL261 (setting [1]), the “tumor inhibition rate, GL261 cells” value is “up to 89%”. In addition, in the test with Tumor cells GL261, the “Tumor inhibition rate GL261” value was found to be 29%.

As to `C[C@]12CC[C@@H](O)[C@]3(CO3)[C@@H]1C[C@@H]1C(CN(CCO)CCO)C(=O)O[C@@H]1C2.O=C(O)/C=C/C(=O)O` (stereo partly drawn) [Compound 5], the “Tumor inhibition rate H22” value with Tumor cells H22 was 31%. The “Tumor inhibition rate LLC” value with Tumor cells LLC is recorded as 26%. In the test on Tumor cells CT26, the “Tumor inhibition rate CT26” value was found to be 52%. Moreover, in the test with Tumor cells MFC, the “Tumor inhibition rate MFC” value was 44%. Moreover, the “Tumor inhibition rate PAN02” value with Tumor cells PAN02 was 19%. In addition, in the test with Tumor cells B16F10, the “Tumor inhibition rate B16F10” value came out at 24%. Further, the “Tumor inhibition rate GL261” value in the test on Tumor cells GL261 is 19%.
